Peptide text beside a SMILES is read from it. * marks the point of attachment. Succinyl(O17-estradiol) = C[C@]12CC[C@@H]3c4ccc(O)cc4CC[C@H]3[C@@H]1CC[C@@H]2OC(=O)CCC(=O)*; Acetyl(estradiol-3-yloxy) = C[C@]12CC[C@@H]3c4ccc(OCC(=O)*)cc4CC[C@H]3[C@@H]1CC[C@@H]2O; X1 = C[C@]12CC[C@@H]3c4ccc(OCC(=O)*)cc4CC[C@H]3[C@@H]1CCC2=O
What was measured:
Mus musculus [1] = experiment: Antiosteoporosis activity against ovariectomized ICR mouse assessed as serum calcium level at 110.3 nmol/kg, po after 30 mins; format: functional
Mus musculus [2] = experiment: Antiosteoporosis activity against ovariectomized ICR mouse assessed as serum phosphorous level at 110.3 nmol/kg, po after 30 mins; format: functional
Mus musculus [3] = experiment: Antiosteoporosis activity against ovariectomized ICR mouse assessed as serum ALP activity at 110.3 nmol/kg, po after 30 mins; format: functional
Mus musculus [4] = experiment: Antiosteoporosis activity against ovariectomized ICR mouse assessed as dry femur weight at 110.3 nmol/kg, po after 30 mins; format: functional
Mus musculus [5] = experiment: Antiosteoporosis activity against ovariectomized ICR mouse assessed as femur ash weight at 110.3 nmol/kg, po after 30 mins; format: functional
Mus musculus [6] = experiment: Antiosteoporosis activity against ovariectomized ICR mouse assessed as femur length at 110.3 nmol/kg, po after 30 mins; format: functional
Mus musculus [7] = experiment: Antiosteoporosis activity against ovariectomized ICR mouse assessed as femur calcium content at 110.3 nmol/kg, po after 30 mins; format: functional
Mus musculus [8] = experiment: Antiosteoporosis activity against ovariectomized ICR mouse assessed as femur phosphorous content at 110.3 nmol/kg, po after 30 mins; format: functional
Mus musculus [9] = experiment: Antiosteoporosis activity against ovariectomized ICR mouse assessed as mineral content at 110.3 nmol/kg, po after 30 mins; format: functional
Mus musculus [10] = experiment: Toxicity in ovariectomized ICR mouse assessed as tail bleeding time at 110.3 nmol/kg, po for 30 mins; format: organism-based; details: in vivo, 0.5 h
Mus musculus [11] = experiment: Toxicity in ovariectomized ICR mouse assessed as tail bleeding time at 110.3 nmol/kg, po for 90 mins; format: organism-based; details: in vivo, 1.5 h
Mus musculus [12] = experiment: Toxicity in ovariectomized ICR mouse assessed as change in uterine weight at 110.3 nmol/kg, po after 4 weeks; format: organism-based; details: in vivo, 672 h
Mus musculus [13] = experiment: Toxicity in ovariectomized ICR mouse assessed as effect on spleen weight at 110.3 nmol/kg, po after 4 weeks; format: organism-based; details: in vivo, 672 h
Mus musculus [14] = experiment: Toxicity in ovariectomized ICR mouse assessed as effect on lung weight at 110.3 nmol/kg, po after 4 weeks; format: organism-based; details: in vivo, 672 h
Mus musculus [15] = experiment: Toxicity in ovariectomized ICR mouse assessed as effect on kidney weight at 110.3 nmol/kg, po after 4 weeks; format: organism-based; details: in vivo, 672 h
Mus musculus [16] = experiment: Toxicity in ovariectomized ICR mouse assessed as effect on liver weight at 110.3 nmol/kg, po after 4 weeks; format: organism-based; details: in vivo, 672 h
Mus musculus [17] = experiment: Toxicity in ovariectomized ICR mouse assessed as effect on body weight at 110.3 nmol/kg, po after 4 weeks; format: organism-based; details: in vivo, 672 h

C[C@]12CC[C@@H]3c4ccc(OCC(=O)N[C@@H](CCCNC(=N)N)C(=O)NCC(=O)N[C@@H](CC(=O)O)C(=O)N[C@@H](CO)C(=O)O)cc4CC[C@H]3[C@@H]1CCC2=O (X1-RGDS-OH)
Activity (Mus musculus [1]): 3.33 mM | Activity (Mus musculus [2]): 2.98 mM | Activity (Mus musculus [3]): 16.62 U/L | Activity (Mus musculus [4]): 54.29 mg | Activity (Mus musculus [5]): 34.38 mg | Activity (Mus musculus [6]): 1.65 cm | Activity (Mus musculus [7]): 57.76% | Activity (Mus musculus [8]): 20.44% | Activity (Mus musculus [9]): 0.6% | Activity (Mus musculus [10]): 579 s | Activity (Mus musculus [11]): 568 s | Activity (Mus musculus [12]): 0.069 g

C[C@]12CC[C@@H]3c4ccc(O)cc4CC[C@H]3[C@@H]1CC[C@@H]2OC(=O)CCC(=O)N[C@@H](CCCNC(=N)N)C(=O)NCC(=O)N[C@@H](CC(=O)O)C(=O)N[C@@H](Cc1ccccc1)C(=O)O ({Succinyl(O17-estradiol)}-RGDF-OH)
Activity (Mus musculus [1]): 3.34 mM | Activity (Mus musculus [3]): 23.18 U/L | Activity (Mus musculus [5]): 34.87 mg | Activity (Mus musculus [7]): 58.06% | Activity (Mus musculus [9]): 0.61% | Activity (Mus musculus [10]): 576 s | Activity (Mus musculus [11]): 568 s | Activity (Mus musculus [12]): 0.06 g

C[C@]12CC[C@@H]3c4ccc(OCC(=O)N[C@@H](CCCNC(=N)N)C(=O)NCC(=O)N[C@@H](CC(=O)O)C(=O)N[C@@H](CO)C(=O)N[C@@H](CCCNC(=N)N)C(=O)NCC(=O)N[C@@H](CC(=O)O)C(=O)N[C@@H](CO)C(=O)O)cc4CC[C@H]3[C@@H]1CCC2=O (X1-RGDSRGDS-OH)
Activity (Mus musculus [1]): 3.08 mM | Activity (Mus musculus [2]): 2.96 mM | Activity (Mus musculus [3]): 13.8 U/L | Activity (Mus musculus [4]): 55.9 mg | Activity (Mus musculus [5]): 35.78 mg | Activity (Mus musculus [6]): 1.67 cm | Activity (Mus musculus [7]): 59.95% | Activity (Mus musculus [8]): 21.76% | Activity (Mus musculus [9]): 0.62% | Activity (Mus musculus [13]): Non-toxic | Activity (Mus musculus [14]): Non-toxic | Activity (Mus musculus [15]): Non-toxic | Activity (Mus musculus [16]): Non-toxic | Activity (Mus musculus [17]): Non-toxic | Activity (Mus musculus [10]): 588 s | Activity (Mus musculus [11]): 516 s | Activity (Mus musculus [12]): 0.058 g

C[C@]12CC[C@@H]3c4ccc(OCC(=O)N[C@@H](CCCNC(=N)N)C(=O)NCC(=O)N[C@@H](CC(=O)O)C(=O)N[C@@H](Cc5ccccc5)C(=O)N[C@@H](CCCNC(=N)N)C(=O)NCC(=O)N[C@@H](CC(=O)O)C(=O)N[C@@H](Cc5ccccc5)C(=O)O)cc4CC[C@H]3[C@@H]1CCC2=O (X1-RGDFRGDF-OH)
Activity (Mus musculus [1]): 3.15 mM | Activity (Mus musculus [2]): 3.01 mM | Activity (Mus musculus [3]): 15.06 U/L | Activity (Mus musculus [4]): 55.26 mg | Activity (Mus musculus [5]): 35.24 mg | Activity (Mus musculus [6]): 1.64 cm | Activity (Mus musculus [7]): 59.92% | Activity (Mus musculus [8]): 20.33% | Activity (Mus musculus [9]): 0.61% | Activity (Mus musculus [13]): Non-toxic | Activity (Mus musculus [14]): Non-toxic | Activity (Mus musculus [15]): Non-toxic | Activity (Mus musculus [16]): Non-toxic | Activity (Mus musculus [17]): Non-toxic | Activity (Mus musculus [10]): 579 s | Activity (Mus musculus [11]): 574 s | Activity (Mus musculus [12]): 0.051 g

C[C@]12CC[C@@H]3c4ccc(O)cc4CC[C@H]3[C@@H]1CC[C@@H]2OC(=O)CCC(=O)N[C@@H](CCCNC(=N)N)C(=O)NCC(=O)N[C@@H](CC(=O)O)C(=O)N[C@@H](CO)C(=O)O ({Succinyl(O17-estradiol)}-RGDS-OH)
Activity (Mus musculus [1]): 3.35 mM | Activity (Mus musculus [3]): 23.93 U/L | Activity (Mus musculus [4]): 53.98 mg | Activity (Mus musculus [6]): 1.66 cm | Activity (Mus musculus [7]): 59.14% | Activity (Mus musculus [9]): 0.6% | Activity (Mus musculus [10]): 575 s | Activity (Mus musculus [11]): 561 s | Activity (Mus musculus [12]): 0.063 g

C[C@]12CC[C@@H]3c4ccc(OCC(=O)N[C@@H](CCCNC(=N)N)C(=O)NCC(=O)N[C@@H](CC(=O)O)C(=O)N[C@@H](Cc5ccccc5)C(=O)O)cc4CC[C@H]3[C@@H]1CCC2=O (X1-RGDF-OH)
Activity (Mus musculus [1]): 3.44 mM | Activity (Mus musculus [2]): 3.17 mM | Activity (Mus musculus [3]): 16.42 U/L | Activity (Mus musculus [4]): 53.99 mg | Activity (Mus musculus [5]): 33.85 mg | Activity (Mus musculus [6]): 1.65 cm | Activity (Mus musculus [7]): 56.96% | Activity (Mus musculus [8]): 20.32% | Activity (Mus musculus [9]): 0.59% | Activity (Mus musculus [10]): 581 s | Activity (Mus musculus [11]): 576 s | Activity (Mus musculus [12]): 0.06 g

CC(C)[C@H](NC(=O)[C@H](CC(=O)O)NC(=O)CNC(=O)[C@H](CCCNC(=N)N)NC(=O)COc1ccc2c(c1)CC[C@@H]1[C@@H]2CC[C@]2(C)[C@@H](O)CC[C@@H]12)C(=O)O ({Acetyl(estradiol-3-yloxy)}-RGDV-OH)
Activity (Mus musculus [1]): 3.32 mM | Activity (Mus musculus [3]): 26.01 U/L | Activity (Mus musculus [5]): 34.29 mg | Activity (Mus musculus [9]): 0.61% | Activity (Mus musculus [10]): 569 s | Activity (Mus musculus [11]): 577 s | Activity (Mus musculus [12]): 0.064 g

Source: ChEMBL document CHEMBL1151896, “3D QSAR of novel estrogen-RGD peptide conjugates: getting insight into structural dependence of anti-osteoporosis activity and side effect of estrogen in ERT” (Bioorg Med Chem, 2009)
